Where a name gives a salt, the structure may show the parent alone. Read-outs that look alike come from different tables or passages of the source.
Assays:
[1] = molecular target: NMDA receptor subunits 1A/2A (NR1A+NR2A) (Rattus norvegicus, UniProt P35439+Q00959); experiment: Electrophysiological assay at cloned NMDA receptor subunits expressed in Xenopus oocytes, 1A/2A; format: cell-based
Procedure: (§1) Electrophysiological Assays at NMDA Receptor Subunits
(§2) The clones were transformed into appropriate host bacteria and plasmid preparations were made with conventional DNA purification techniques. A sample of each clone was linearized by restriction enzyme digestion and cRNA was synthesized with T3 RNA polymerase. The cRNA was diluted to 400 ng/μl and stored in 1 μl aliquots at −80° C. until injection.
(§3) The Xenopus oocyte Expression System
(§4) Follicle-enclosed oocytes were micro-injected with 1:1 mixtures of cRNA:NR1A+NR2A, 2B, 2C or 2D; injecting ˜2,5, or 20 ng of RNA encoding each receptor subunit. NR1A encoding cRNA was injected alone at ˜20 ng. Oocytes were stored in Barth's medium containing (in mM):NaCl, 88; KCl, 1; CaCl2, 0.41; Ca(NO3)2, 0.33; MgSO4, 0.82 NaHCO3, 2.4; HEPES 5, pH 7.4, with 0.1 mg/ml gentamicin sulphate. While oocytes were still surrounded by enveloping ovarian tissues the Barth's medium was supplemented with 0.1% bovine serum.
(§5) Electrical recordings were made using a conventional two-electrode voltage clamp (Dagan TEV-200) over periods ranging between 3-14 days following injection. […] Drugs were applied by bath perfusion. Using oocytes expressing different subunit combinations of NMDA receptor, NMDA currents were activated by co-application of glutamate and glycine. Inhibitory potency of the novel antagonists was assessed on responses elicited by fixed concentrations of glutamate and glycine, by measuring reductions in current induced by progressively increasing concentrations of antagonists.
(§6) Concentration-inhibition curves were fit with equation 1.
(§7) in which Icontrol is the current evoked by agonists alone, pIC50=−log IC50, IC50 is the concentration of antagonist that produces half maximal inhibition, and n is the slope factor. […] For incomplete curves analysis by fitting was unreliable and IC50 values were calculated by simple regression over linear portions of the curves (Origin: Microcal Software).

[2] = molecular target: NMDA receptor subunits 1A/2B (NR1A+NR2B) (Rattus norvegicus, UniProt P35439+Q00960); experiment: Electrophysiological assay at cloned NMDA receptor subunits expressed in Xenopus oocytes, 1A/2B; format: cell-based
Procedure: as §1, §2, §3, §4, §5, §6, §7

[3] = molecular target: NMDA receptor subunits 1A/2C (NR1A+NR2C) (Rattus norvegicus, UniProt P35439+Q00961); experiment: Electrophysiological assay at cloned NMDA receptor subunits expressed in Xenopus oocytes, 1A/2C; format: cell-based
Procedure: as §1, §2, §3, §4, §5, §6, §7

[4] = tested on: maximal electroshock-induced seizures; experiment: Maximal electroshock-induced seizures (MES); format: in vivo, mice; conditions: Mus musculus, read-out: MES (ED50) (mg/kg)
Procedure: Maximal Electroshock-induced Seizures
Seizures were induced by application of current (50 mA, 60 pulses/sec, 0.8 sec pulse width, 1 sec duration, d.c.) through saline-coated corneal electrodes using a Ugo Basile ECT device (Model 7801). […] A tonic seizure was defined as a hindlimb extension in excess of 90 degrees from the plane of the body. Results were treated in a quantal manner.

[5] = molecular target: NMDA receptor subunits 1A/2D (NR1A+NR2D) (Rattus norvegicus, UniProt P35439+Q62645); experiment: Electrophysiological assay at cloned NMDA receptor subunits expressed in Xenopus oocytes, 1A/2D; format: cell-based; conditions: two-electrode voltage clamp, currents activated by glutamate and glycine
Text: Electrophysiological Assays at NMDA Receptor Subunits […]
cDNA clones encoding the NR1A, NR2A, NR2B, NR2C and NR2D rat NMDA receptor subtypes were provided by Dr. P. H. Seeburg (see, Morivoshi et al., Nature (Lond.) 354:31-37 (1991); Kutsuwada et al., Nature (Lond.) 358:36-41 (1992) Monyer et al., Science (Washington. D.C.) 256:1217-1221 (1992); Ikeda et al., FEBS Lett. 313:34-38 (1992); Ishii et al., J. Biol. Chem. 268:2836-2843 (1993) for details of these clones or their mouse homologs). The clones were transformed into appropriate host bacteria and plasmid preparations were made with conventional DNA purification techniques. A sample of each clone was linearized by restriction enzyme digestion and cRNA was synthesized with T3 RNA polymerase. The cRNA was diluted to 400 ng/μl and stored in 1 μl aliquots at −80° C. until injection.
The Xenopus oocyte Expression System […]
Electrical recordings were made using a conventional two-electrode voltage clamp (Dagan TEV-200) over periods ranging between 3-14 days following injection. […] Inhibitory potency of the novel antagonists was assessed on responses elicited by fixed concentrations of glutamate and glycine, by measuring reductions in current induced by progressively increasing concentrations of antagonists. […]

[6] = cloned rat NMDA receptor in Xenopus oocytes, two-electrode voltage clamp, currents activated by glutamate and glycine, read-out: Subunits (IC50(μM)) 1A/2A
[7] = cloned rat NMDA receptor in Xenopus oocytes, two-electrode voltage clamp, currents activated by glutamate and glycine, read-out: Subunits (IC50(μM)) 1A/2B
[8] = cloned rat NMDA receptor in Xenopus oocytes, two-electrode voltage clamp, currents activated by glutamate and glycine, read-out: Subunits (IC50(μM)) 1A/2C

Sequence of NMDA receptor subunits 1A/2B (NR1A+NR2B) (Q00960 27-1482, other chains not shown): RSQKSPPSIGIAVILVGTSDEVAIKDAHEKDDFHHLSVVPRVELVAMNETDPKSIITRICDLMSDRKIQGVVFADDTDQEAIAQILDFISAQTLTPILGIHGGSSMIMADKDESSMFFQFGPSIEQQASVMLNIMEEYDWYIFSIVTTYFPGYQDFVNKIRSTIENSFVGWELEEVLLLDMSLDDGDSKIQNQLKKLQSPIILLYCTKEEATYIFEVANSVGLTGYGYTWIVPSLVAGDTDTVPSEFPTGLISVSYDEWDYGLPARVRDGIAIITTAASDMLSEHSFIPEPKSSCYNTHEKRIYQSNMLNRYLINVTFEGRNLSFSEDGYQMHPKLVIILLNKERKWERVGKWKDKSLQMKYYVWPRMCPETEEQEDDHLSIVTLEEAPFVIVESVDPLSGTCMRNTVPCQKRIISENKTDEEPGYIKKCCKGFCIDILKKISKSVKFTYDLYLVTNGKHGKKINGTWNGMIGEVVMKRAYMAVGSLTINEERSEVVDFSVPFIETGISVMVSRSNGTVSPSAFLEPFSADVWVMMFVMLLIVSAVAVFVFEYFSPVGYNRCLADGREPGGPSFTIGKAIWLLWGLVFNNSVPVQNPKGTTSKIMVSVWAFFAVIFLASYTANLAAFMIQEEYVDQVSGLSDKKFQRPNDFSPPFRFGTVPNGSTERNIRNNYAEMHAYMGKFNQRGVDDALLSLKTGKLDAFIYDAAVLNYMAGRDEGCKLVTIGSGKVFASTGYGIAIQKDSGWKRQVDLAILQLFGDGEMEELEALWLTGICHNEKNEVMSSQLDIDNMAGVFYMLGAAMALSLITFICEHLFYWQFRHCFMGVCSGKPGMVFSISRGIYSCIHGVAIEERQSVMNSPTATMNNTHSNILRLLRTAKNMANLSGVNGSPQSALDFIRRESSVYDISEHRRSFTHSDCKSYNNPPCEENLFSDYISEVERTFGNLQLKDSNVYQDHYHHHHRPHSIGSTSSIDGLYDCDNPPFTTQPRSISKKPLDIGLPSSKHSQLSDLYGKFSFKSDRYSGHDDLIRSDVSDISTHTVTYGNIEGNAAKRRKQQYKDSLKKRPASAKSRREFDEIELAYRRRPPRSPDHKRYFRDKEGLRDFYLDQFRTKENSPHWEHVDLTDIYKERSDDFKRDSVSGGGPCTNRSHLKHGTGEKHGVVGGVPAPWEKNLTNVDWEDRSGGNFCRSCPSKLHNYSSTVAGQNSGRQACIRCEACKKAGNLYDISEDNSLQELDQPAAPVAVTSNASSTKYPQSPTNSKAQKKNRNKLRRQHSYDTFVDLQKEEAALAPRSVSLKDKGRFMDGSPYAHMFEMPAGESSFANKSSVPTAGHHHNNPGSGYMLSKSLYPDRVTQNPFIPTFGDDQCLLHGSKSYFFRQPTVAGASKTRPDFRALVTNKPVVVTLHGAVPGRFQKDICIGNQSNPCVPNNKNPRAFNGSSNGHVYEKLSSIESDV
Sequence of NMDA receptor subunits 1A/2A (NR1A+NR2A) (Q00959 23-1464, other chains not shown): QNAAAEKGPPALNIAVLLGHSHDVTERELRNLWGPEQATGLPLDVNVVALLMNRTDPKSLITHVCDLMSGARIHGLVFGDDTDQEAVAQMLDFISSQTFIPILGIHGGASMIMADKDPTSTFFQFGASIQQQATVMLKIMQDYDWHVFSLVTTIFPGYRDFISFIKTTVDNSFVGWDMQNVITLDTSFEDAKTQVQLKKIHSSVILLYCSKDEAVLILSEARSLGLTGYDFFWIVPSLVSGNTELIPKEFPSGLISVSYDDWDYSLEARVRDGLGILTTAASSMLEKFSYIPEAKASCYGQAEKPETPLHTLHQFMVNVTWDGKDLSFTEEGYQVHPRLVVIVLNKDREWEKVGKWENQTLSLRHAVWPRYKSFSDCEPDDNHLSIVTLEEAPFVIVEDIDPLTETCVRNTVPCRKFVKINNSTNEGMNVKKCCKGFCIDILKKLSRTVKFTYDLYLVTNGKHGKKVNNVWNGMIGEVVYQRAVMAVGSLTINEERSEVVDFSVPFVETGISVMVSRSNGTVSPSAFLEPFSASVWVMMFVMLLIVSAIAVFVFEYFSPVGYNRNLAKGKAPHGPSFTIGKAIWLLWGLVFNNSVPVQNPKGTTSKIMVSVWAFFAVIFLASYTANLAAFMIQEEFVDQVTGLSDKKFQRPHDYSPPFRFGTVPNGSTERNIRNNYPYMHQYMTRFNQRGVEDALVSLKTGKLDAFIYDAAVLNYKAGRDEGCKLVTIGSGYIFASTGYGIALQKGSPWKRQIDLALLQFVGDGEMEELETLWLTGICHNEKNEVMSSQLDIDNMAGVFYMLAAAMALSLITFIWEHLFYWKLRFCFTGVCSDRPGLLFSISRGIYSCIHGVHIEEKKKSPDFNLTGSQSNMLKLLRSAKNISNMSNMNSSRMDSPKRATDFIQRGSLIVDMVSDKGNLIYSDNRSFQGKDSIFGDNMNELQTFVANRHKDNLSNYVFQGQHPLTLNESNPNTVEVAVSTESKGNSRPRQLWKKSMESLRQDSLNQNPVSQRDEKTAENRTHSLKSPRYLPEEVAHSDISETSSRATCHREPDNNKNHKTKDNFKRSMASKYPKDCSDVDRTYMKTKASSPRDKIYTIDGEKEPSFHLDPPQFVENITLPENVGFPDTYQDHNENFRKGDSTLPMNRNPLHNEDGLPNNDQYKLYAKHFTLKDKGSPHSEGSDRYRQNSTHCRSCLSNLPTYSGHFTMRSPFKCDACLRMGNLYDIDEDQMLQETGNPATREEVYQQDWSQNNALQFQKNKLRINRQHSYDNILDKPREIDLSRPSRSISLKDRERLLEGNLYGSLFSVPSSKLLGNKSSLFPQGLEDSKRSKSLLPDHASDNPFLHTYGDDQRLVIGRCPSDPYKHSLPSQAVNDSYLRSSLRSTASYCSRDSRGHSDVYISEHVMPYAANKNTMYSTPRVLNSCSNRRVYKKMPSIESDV
Sequence of NMDA receptor subunits 1A/2C (NR1A+NR2C) (Q00961 20-1237, other chains not shown): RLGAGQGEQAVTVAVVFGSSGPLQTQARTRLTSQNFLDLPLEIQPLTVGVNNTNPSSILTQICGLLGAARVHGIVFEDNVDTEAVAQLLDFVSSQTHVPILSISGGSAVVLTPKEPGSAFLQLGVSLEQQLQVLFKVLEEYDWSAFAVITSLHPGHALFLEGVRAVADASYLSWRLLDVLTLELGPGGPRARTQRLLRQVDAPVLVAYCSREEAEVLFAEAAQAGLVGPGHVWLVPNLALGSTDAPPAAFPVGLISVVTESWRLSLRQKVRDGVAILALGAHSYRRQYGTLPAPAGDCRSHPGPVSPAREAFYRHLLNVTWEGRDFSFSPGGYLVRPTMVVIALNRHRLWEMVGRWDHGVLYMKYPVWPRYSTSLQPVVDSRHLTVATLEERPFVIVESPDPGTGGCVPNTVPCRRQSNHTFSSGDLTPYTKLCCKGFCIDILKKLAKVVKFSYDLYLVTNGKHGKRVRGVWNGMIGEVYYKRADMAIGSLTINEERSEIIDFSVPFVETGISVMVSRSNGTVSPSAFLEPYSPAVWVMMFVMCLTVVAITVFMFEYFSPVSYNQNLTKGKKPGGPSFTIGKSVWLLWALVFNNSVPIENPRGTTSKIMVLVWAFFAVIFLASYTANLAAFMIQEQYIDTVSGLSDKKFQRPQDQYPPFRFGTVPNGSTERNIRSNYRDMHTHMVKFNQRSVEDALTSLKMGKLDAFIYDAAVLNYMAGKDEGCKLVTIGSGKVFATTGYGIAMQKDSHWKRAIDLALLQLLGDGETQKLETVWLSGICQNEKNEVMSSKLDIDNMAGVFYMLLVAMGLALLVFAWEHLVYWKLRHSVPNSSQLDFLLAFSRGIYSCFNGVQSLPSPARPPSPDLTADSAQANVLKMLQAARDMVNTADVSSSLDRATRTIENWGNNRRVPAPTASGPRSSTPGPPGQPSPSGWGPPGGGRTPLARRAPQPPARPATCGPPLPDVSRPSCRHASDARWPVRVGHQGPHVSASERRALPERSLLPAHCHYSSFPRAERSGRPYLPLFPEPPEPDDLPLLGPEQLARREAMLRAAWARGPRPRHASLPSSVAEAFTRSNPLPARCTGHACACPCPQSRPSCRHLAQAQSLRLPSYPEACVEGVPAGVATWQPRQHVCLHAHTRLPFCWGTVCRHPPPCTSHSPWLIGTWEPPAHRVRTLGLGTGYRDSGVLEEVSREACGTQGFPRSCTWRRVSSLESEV

melting point [°C]	IC50 [1, 6] [µM]	IC50 [2, 7] [µM]	IC50 [3, 8] [µM]	SMILES	further results
136 to 140				Br.FC(F)(F)c1ccccc1OCCCCN1CCCCC1Cc1ccccc1 (stereo not drawn)	
143.5 to 144.5				Br.FC(F)(F)c1cccc(OCCCCN2CCCCC2Cc2ccccc2)c1 (stereo not drawn)	
130 to 134				Br.FC(F)(F)c1ccc(OCCCCN2CCCCC2Cc2ccccc2)cc1 (stereo not drawn)	
119 to 123				Br.Fc1cccc(OCCCCN2CCCCC2Cc2ccccc2)c1 (stereo not drawn)	
179 to 180				Fc1ccc(OCC[n+]2ccccc2Cc2ccc(Cl)cc2)cc1.[Br-]	
162.5 to 164.5				Br.c1ccc(CCN2CCCCC2Cc2ccccc2)cc1 (stereo not drawn)	
137.5 to 139.5				c1ccc(CC2CCCCN2CCCCCOc2ccccc2)cc1 (stereo not drawn) (as salt: hydrobromid) [Example 20, 2-Benzyl-1-(5-phenoxypentyl)piperidine hydrobromide]	
180 to 182				O=[N+]([O-])c1ccc(OCCN2CCCCC2Cc2ccccc2)cc1 (stereo not drawn) (as salt: hydrobromid) [Example 21, 2-Benzyl-1-(2-(4-nitrophenoxy)ethyl)-piperidine hydrobromide]	
130				Nc1ccc(OCCN2CCCCC2Cc2ccccc2)cc1 (stereo not drawn) (as salt: hydrobromid) [Example 22, 1-(2-(4-Aminophenoxy)ethyl)-2-benzylpiperidine dihydrobromide]	
	23	50	> 100	Cc1ccccc1OCC(O)CN1CCCCC1Cc1ccccc1 (stereo not drawn) [Example 18, 2-Benzyl-1-[2-hydroxy-3-(2-methyl)phenoxy]propylpiperidine]	IC50 [5]: > 300 µM
	14	22	70	c1ccc(CC2CCCCN2CCCCCOc2ccccc2)cc1 (stereo not drawn) [Example 20, 2-Benzyl-1-(5-phenoxypentyl)piperidine hydrobromide]	
	60	35	240	O=[N+]([O-])c1ccc(OCCN2CCCCC2Cc2ccccc2)cc1 (stereo not drawn) [Example 21, 2-Benzyl-1-(2-(4-nitrophenoxy)ethyl)-piperidine hydrobromide]	
	80	6	180	Nc1ccc(OCCN2CCCCC2Cc2ccccc2)cc1 (stereo not drawn) [Example 22, 1-(2-(4-Aminophenoxy)ethyl)-2-benzylpiperidine dihydrobromide]	
163 to 165	55	22	160	Cl.Fc1ccc(OCCN2CCCCC2Cc2ccc(Cl)cc2)cc1 (stereo not drawn) [Example 24, 2-(4-Chlorobenzyl)-1-(2-(4-fluorophenoxy)ethyl)piperidine hydrochloride]	
163 to 164	30	16	40	Cl.Oc1ccc(OCCCN2CCCCC2Cc2ccccc2)cc1 (stereo not drawn) [Example 27, 2-Benzyl-1-(3-(4-hydroxyphenoxy)propyl)piperidine hydrochloride]	
	15	10	110	Oc1ccc(OCCCCN2CCCCC2Cc2ccccc2)cc1 (stereo not drawn) [Example 28, 2-Benzyl-1-(4-(4-hydroxyphenoxy)butyl)piperidine hydrochloride]	
	7.5	5	33	O=c1[nH]c2ccc(OCCN3CCCCC3Cc3ccccc3)cc2[nH]1 (stereo not drawn) [Example 30, 2-Benzyl-1-(4-(2-oxobenzimidazol-5-oxy)ethyl)piperidine]	

SMILES	melting point [°C]	IC50 [1, 6] [µM]	IC50 [2, 7] [µM]	IC50 [3, 8] [µM]	further results
Br.c1ccc(CCCCN2CCCCC2Cc2ccccc2)cc1 (stereo not drawn)	133 to 135				
Br.c1ccc(CC2CCCCN2CCCCOc2ccccc2)cc1 (stereo not drawn)	100 to 103				
c1ccc(CC2CCCCN2Cc2ccccc2)cc1 (stereo not drawn) [Example 2, 1,2-Dibenzylpiperidine, hydrobromide]		15	19	33	
Br.c1ccc(CCCN2CCCCC2Cc2ccccc2)cc1 (stereo not drawn) [Example 4, 2-Benzyl-1-(3-phenylpropyl)piperidine, hydrobromide]	155 to 157	8	15	125	
c1ccc(CCCCN2CCCCC2Cc2ccccc2)cc1 (stereo not drawn) [Example 5, 2-Benzyl-1-(4-phenylbutyl)piperidine]		5	8	55	ED50 [4]: 4 mg/kg
c1ccc(CC2CCCCN2CCOc2ccccc2)cc1 (stereo not drawn) [Example 6, 2-Benzyl-1-(2-phenoxyethyl)piperidine]		17	25	130	
Br.c1ccc(CC2CCCCN2CCCOc2ccccc2)cc1 (stereo not drawn) [Example 7, 2-Benzyl-1-(3-phenoxypropyl)piperidine hydrobromide]	119 to 121	4	12	45	ED50 [4]: 2.5 mg/kg
c1ccc(CC2CCCCN2CCCCOc2ccccc2)cc1 (stereo not drawn) [Example 8, 2-Benzyl-1-(4-phenoxybutyl)piperidine]		3	8	45	ED50 [4]: 4 mg/kg
Cl.Oc1ccc(OCCN2CCCCC2Cc2ccc(Cl)cc2)cc1 (stereo not drawn) [Example 25, 2-(4-Chlorobenzyl)-1-(2-(4-hydroxyphenoxy)ethyl)piperidine hydrochloride]	229 to 230				IC50 [1]: 62 µM; IC50 [2]: 4.2 µM; IC50 [3]: 160 µM
Cl.Oc1ccc(OCCN2CCCCC2Cc2ccccc2)cc1 (stereo not drawn) [Example 26, 2-Benzyl-1-(2-(4-hydroxyphenoxy)ethyl)piperidine hydrochloride]	215 to 216				IC50 [1]: 80 µM; IC50 [2]: 15 µM; IC50 [3]: 150 µM

Source: patent US6534525B1, “2-substituted piperidine analogs and their use as subtype-selective NMDA receptor antagonists” (Warner-Lambert & Company, priority 1995, dated 2003)
